# Legend:
# [1] = molecular target: T1, PIP4K2C (Phosphatidylinositol-5-phosphate 4-kinase, type II, gamma) (Homo sapiens, UniProt Q8TBX8); experiment: KINOMEscan competitive binding assay, dose-response
# T1 sequence (Q8TBX8 2-421): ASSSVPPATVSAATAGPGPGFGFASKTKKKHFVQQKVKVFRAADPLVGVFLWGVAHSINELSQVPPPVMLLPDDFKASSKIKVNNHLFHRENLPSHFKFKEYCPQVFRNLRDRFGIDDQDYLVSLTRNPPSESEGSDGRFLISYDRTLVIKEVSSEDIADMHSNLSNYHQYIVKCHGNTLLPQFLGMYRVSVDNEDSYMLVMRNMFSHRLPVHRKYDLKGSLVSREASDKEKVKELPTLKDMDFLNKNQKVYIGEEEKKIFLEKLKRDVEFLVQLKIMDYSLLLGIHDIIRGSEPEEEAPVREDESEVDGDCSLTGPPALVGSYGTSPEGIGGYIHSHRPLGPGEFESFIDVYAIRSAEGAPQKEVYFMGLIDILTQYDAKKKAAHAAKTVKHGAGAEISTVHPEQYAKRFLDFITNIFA
# PIP5K1C = PIP5K1C (Homo sapiens, UniProt O60331); experiment: microfluidic mobility shift assay with fluorescein-PI; format: biochemical
# SGK1 = molecular target: T2, SGK1 (Homo sapiens, UniProt O00141); experiment: KINOMEscan competitive binding at […]; settings: read-out: % binding remaining at 10 μM
# T2 sequence (O00141 1-431): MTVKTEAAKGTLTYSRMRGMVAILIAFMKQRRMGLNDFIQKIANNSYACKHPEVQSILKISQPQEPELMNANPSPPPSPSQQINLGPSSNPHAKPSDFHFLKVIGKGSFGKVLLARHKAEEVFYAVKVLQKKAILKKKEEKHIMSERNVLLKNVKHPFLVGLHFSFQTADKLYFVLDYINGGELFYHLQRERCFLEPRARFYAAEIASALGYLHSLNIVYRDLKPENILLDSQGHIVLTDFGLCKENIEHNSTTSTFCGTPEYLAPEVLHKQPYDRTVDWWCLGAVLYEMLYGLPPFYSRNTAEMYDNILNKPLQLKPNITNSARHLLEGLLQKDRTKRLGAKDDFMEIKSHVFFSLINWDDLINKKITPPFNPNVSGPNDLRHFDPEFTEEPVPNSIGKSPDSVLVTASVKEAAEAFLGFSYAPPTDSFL
# Sequence of PIP5K1C (O60331 whole entry): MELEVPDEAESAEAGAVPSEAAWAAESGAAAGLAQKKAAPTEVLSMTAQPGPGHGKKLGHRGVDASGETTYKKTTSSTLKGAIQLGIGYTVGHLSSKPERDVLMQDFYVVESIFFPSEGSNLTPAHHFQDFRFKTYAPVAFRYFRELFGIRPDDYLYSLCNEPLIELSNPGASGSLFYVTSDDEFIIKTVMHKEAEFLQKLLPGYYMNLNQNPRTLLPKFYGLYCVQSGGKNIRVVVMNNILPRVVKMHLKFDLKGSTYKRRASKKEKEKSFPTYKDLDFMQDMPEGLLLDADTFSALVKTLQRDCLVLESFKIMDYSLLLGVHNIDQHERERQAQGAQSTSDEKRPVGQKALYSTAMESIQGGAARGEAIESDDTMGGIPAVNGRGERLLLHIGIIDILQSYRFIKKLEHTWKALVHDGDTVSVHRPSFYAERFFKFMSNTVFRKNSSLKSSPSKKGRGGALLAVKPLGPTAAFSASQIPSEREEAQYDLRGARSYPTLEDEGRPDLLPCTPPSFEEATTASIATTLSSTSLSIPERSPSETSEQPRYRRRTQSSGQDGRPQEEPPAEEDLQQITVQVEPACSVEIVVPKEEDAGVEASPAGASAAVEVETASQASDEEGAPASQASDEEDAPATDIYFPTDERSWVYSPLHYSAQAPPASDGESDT
structure (smiles),measurement,setting,value
"NC(=O)c1nc(Nc2ccccc2)sc1NC(=O)C1CCCCC1 [UNC3230, 5-(cyclohexanecarboxamido)-2-(phenylamino)thiazole-4-carboxamide]",Kd,[1],< 200 nM
same,IC50,PIP5K1C,~41 nM
same,remaining binding at 10 µM,SGK1,8%
